Experimental data taken from publication PMC12113339, “Miltefosine analogues with comparable antileishmanial activity and significantly reduced macrophage cytotoxicity” (Memórias do Instituto Oswaldo Cruz, 2025).
Where two headings read alike, the source gives them in different places.

Key:
[1] = system: amastigotes internalised within J774.A1 macrophages; parameters: method as in Scariot et al. 13; conditions: ref Scariot et al. 13; cited from earlier work
[2] = system: GFP-labelled L. amazonensis amastigotes within J774.A1 macrophages; experiment: microbe, parasite or virus in culture; assay type: cell-based, Leishmania amazonensis; conditions: for Minimum concentration required to significantly reduce the percentage of macrophages infected with GFP-expressing amastigotes / Minimum concentration required to significantly decrease the mean fluorescence intensity: 24 h of treatment; for Minimum concentration required to significantly reduce the percentage of macrophages infected with GFP-expressing amastigotes: % GFP+ cells; for Minimum concentration required to significantly decrease the mean fluorescence intensity: MFI; for SI (CC50/EC50), amastigotes: CC50 J774A.1 / EC50 amastigotes; for EC50: Leishmania amazonensis, intracellular amastigotes in J774.A1, 24 h treatment, % infected cells, read-out: EC50 ± SD, amastigotes
Description: J774.A1 macrophage infection - GFP-labelled L. amazonensis was cultivated in Grace’s insect medium supplemented as described above. The GFP-labelled parasites were selected using 30 μg/mL hygromycin B.[21] J774.A1 macrophages were cultured in RPMI-1640 medium supplemented with 10% FCS, 2 mM L-glutamine, 11 mM sodium bicarbonate, 100 U/mL penicillin, and 100 µg/mL streptomycin. A sample with 4 x 10^6 cells/mL was infected with GFP-L. amazonensis (five parasites/cell) from six-day cultures for 24 h. Following infection, the cells were washed with 1x phosphate-buffered saline (PBS) to remove non-internalised parasites and cultured for an additional 24 h in the presence of MIL or its analogues at different concentrations (7.5-240 μM).
After cooling to ~4 °C, samples were collected by mechanical harvesting of adherent cells, washed twice with 1x PBS, and fixed with 1% paraformaldehyde for flow cytometry analysis using a BD Accuri™ C6 Flow Cytometry instrument (BD Bioscience, San Jose, CA, USA). Macrophages were selected by forward versus side scatter (FSC vs SSC). The data were analysed using FCS Express software (De Novo Software^TM, Glendale, CA, USA). The percentage of cells expressing GFP^+ (% infected cells) and mean fluorescence intensity (estimated amount of internalised parasites) were evaluated. The mean EC50 values were determined based on the best-fit sigmoidal curve plotted for infection percentage versus compound concentration, considering the maximum and minimum percentages of infected cells.

[3] = system: plasma membranes of Leishmania amazonensis promastigotes; experiment: Best fit of eq. 3 to EC50 versus cell concentration (biophysical parameters); assay type: cell-based; conditions: for EC50: Leishmania amazonensis, read-out: cw50, concentration in the aqueous phase that inhibits parasite growth by half; for cm50, concentration in the membrane that inhibits parasite growth by half: from KM/W and cw50
Description: In cell suspension assays, the concentration of lipophilic compounds within the membrane can exceed that in the aqueous medium by over 10,000-fold (Log KM/W > 4). In a well-diluted cell suspension, the quantity of compound associated with the membrane can be negligible due to the relatively small membrane volume; consequently, the compound predominantly resides in the aqueous phase, rendering its EC50 value effectively equivalent to its concentration in that phase, denoted as cw50. However, as cell concentration increases, the enhanced membrane volume results in a significant elevation of the EC50 compared to cw50. The equation that describes the variation of MIL EC50 values in relation to cell concentration in the assay has been derived and is expressed as follows:[10] ^, [11]
EC50=[(Vmc. cc)^-1+ KM/W/ (Vmc . cc)^-1+1)] cw50 (3)
Where Vmc is the estimated cell membrane volume for an L. amazonensis promastigote, previously estimated as 8.17 x 10^-13 mL,[11] and cc is the number of cells per mL. The parameters KM/W and cw50 are covariant in eq. 3, and their values can be determined as best-fit parameters of eq. For very dilute samples, the plasma membrane content is small, and the EC50 and cw50 values are practically the same; assuming in eq. 3 that (Vmc . cc)^-1 >> KM/W, the EC50 = ~cw50. For high concentrations of cells, a remarkable amount of the compound goes to the membrane, and the EC50 value is much higher than the cw50 value. The cm50 value can also be determined from the […] relationship.

[4] = system: L. amazonensis promastigotes; parameters: method as in Scariot et al. 13; conditions: ref Scariot et al. 13; cited from earlier work
[5] = system: Leishmania amazonensis promastigotes; experiment: microbe, parasite or virus in culture; assay type: cell-based; conditions: for SI (CC50/EC50), promastigotes: CC50 J774A.1 / EC50 promastigotes; for EC50: Leishmania amazonensis
Description: (§1) Cells - Leishmania (L.) amazonensis (MHOM/BR/75/Josefa) and green fluorescent protein (GFP)-labelled L. amazonensis (IFLA/BR/67/PH8) reference strains in their promastigote form were grown in 24-well microtiter plates containing 2 mL of Grace’s insect medium supplemented with 20% heat-inactivated FCS, 2 mM L-glutamine, 100 U/mL penicillin, and 100 µg/mL streptomycin, as previously described.[11] ^, [12] The promastigotes were collected for the experiments when the highest proportion of infective metacyclics was reached (6th day of culture). The J774.A1 murine macrophage cell line was obtained from the cell bank of Rio de Janeiro (NCE/UFRJ). Macrophages were cultured in RPMI-1640 medium supplemented with 10% FCS, 2 mM L-glutamine, 100 U/mL penicillin, and 100 μg/mL streptomycin at 36.5 °C in a humidified incubator containing 5% CO2.
(§2) In vitro assays of antileishmanial activity and macrophage cytotoxicity - Parasites at different cell concentrations (5 x 10^6, 1 x 10^7, 1 x 10^8, and 1 x 10^9 cells/mL), or J774.A1 macrophages at 1 x 10^6 cells/mL, were treated with increasing concentrations of MIL or its analogues, TC387, TC388, and TC437 (Fig. 1), which were initially diluted in an ethanol/DMSO mixture (1:1, v/v) at 25 or 250 mg/mL and then diluted in culture medium supplemented with 10% FCS. Promastigote or macrophage samples (100 µL) containing six different concentrations of the compounds (5-160 μM for promastigotes and 200-6,400 μM for macrophages) were prepared in 96-well microtiter plates and incubated for 24 h at 26 °C for promastigotes or 36.5 °C for macrophages. Cell viability was quantified by measuring the reduction of MTT to formazan by mitochondrial reductases. Formazan absorbance was read on the enzyme-linked immunosorbent assay (ELISA) reader at 550 nm, and the half maximal effective concentration (EC50) or half-maximal cytotoxic concentration (CC50) values were determined based on the best fit of the sigmoidal curve on the absorbance data versus the compound concentrations.

[6] = Macrophage cytotoxicity (MTT cell viability); assay type: cell-based, murine; conditions: mouse, J774.A1 macrophages, J774A.1 cells
Description: as §1, §2

[7] = Haemolytic potential in PBS; assay type: cell-based; conditions: human, washed erythrocytes in PBS, haematocrit 2%, 2 h at 36.5 °C, read-out: Erythrocytes in PBS - % haemolysis; for hemolysis at 2 h, 6.6 mM: 6.6 mM (22 times 300 µM)
Description: To assess the haemolytic potential in PBS, blood was initially diluted threefold in PBS and centrifuged at 800 × g for 10 min at 4 °C. Plasma and white blood cells were removed, and the remaining cells were resuspended in PBS. Erythrocytes were washed twice in PBS, discarding the supernatant after centrifugation. Erythrocytes were then added to a micellar suspension of the compounds at various concentrations in PBS (0.3-10 mM), achieving a final haematocrit of 2%. Samples were incubated for 2 h at 36.5 ± 1 °C, and haemolysis percentages and HC50 values were determined as described above.

whole blood = experiment: Haemolytic potential in whole blood; assay type: cell-based, human; conditions: 7.5 mM, 24 h at 7 °C
Description: (§3) Haemolytic potential in whole blood and PBS - Blood was collected from a university blood bank, adhering to an approved protocol by the Ethics Committee for Human and Animal Medical Research at Hospital das Clínicas, Universidade Federal de Goiás (CAAE: 81316417.1.0000.5078). To evaluate the haemolytic potential of MIL and its analogues (TC387, TC388, and TC437) in whole blood, plasma was separated by centrifugation at 1800 × g for 10 min at 4 °C. Next, 58 µL of plasma samples containing different concentrations of the compounds were prepared (in this case the compounds were diluted directly in blood plasma to final concentrations in the range of 2.5-12.5 mM), and 42 µL of the blood cells (100%) were added to each sample to reconstitute the whole blood. Samples were incubated for 24 h at 7 ± 1 °C, and several agitations were made in this period. After incubation, 1.4 mL PBS was added to each sample, and the tubes were centrifuged (3500 x g for 10 min). The percentage of haemolysis was determined based on the absorbance of haemoglobin in the supernatant at 540 nm relative to the sample without treatment (control). The compound concentration required for 50% haemolysis (HC50) was calculated by fitting the percentage of haemolysis versus compound concentration data to a sigmoidal curve.

[8] = Haemolytic potential in whole blood; assay type: cell-based, human; conditions: human, whole blood reconstituted from plasma and blood cells, 24 h at 7 °C, read-out: Whole blood - % haemolysis
Description: as §3

[9] = best-fit parameter of eq. 3, equivalent to EC50 for diluted samples
[10] = 24 h, read-out: EC50 ± SD, promastigotes, 24 h at 26 °C, MTT

| Compound | Minimum concentration required to significantly reduce the percentage of macrophages infected with GFP-expressing amastigotes [2] | Minimum concentration required to significantly decrease the mean fluorescence intensity [2] | SI (CC50/EC50), amastigotes [2] | EC50 [2] | EC50 [3, 9] | cm50, concentration in the membrane that inhibits parasite growth by half [3] | SI (CC50/EC50), promastigotes [5] | EC50 [5, 10] | CC50 at 24 h [6] | hemolysis at 2 h, 3.3 mM [7] | hemolysis at 2 h, 6.6 mM [7] | hemolysis at 2 h, 10 mM [7] | hemolysis at 24 h, 7.5 mM [8] | hemolysis at 24 h, 10 mM [8] | other results |
| --- | --- | --- | --- | --- | --- | --- | --- | --- | --- | --- | --- | --- | --- | --- | --- |
| CCCCCCCCCCCCCCCCOP(=O)([O-])OCC[N+](C)(C)C [MIL, hexadecylphosphocholine, reference compound] | 15 µM | 15 µM | 5 | 17 ± 3 µM | 9.4 ± 1.2 µM | 0.81 ± 0.07 (B) M | around 6 | 13 ± 3 µM | 77 ± 23 µM | – | – | – | – | – | IC50 [1]: 2 µM; IC50 [4]: 21 µM; SI (CC50/EC50), promastigotes ([5]; listed as Miltefosine): 6; EC50 ([5]; read-out: EC50, promastigotes, cell concentration 1 x 10^7 parasites/mL): ~13 µM; EC50 ([5]; read-out: EC50, promastigotes, cell concentration 1 x 10^9 parasites/mL): ~660 µM |
| COc1cccc(CCCCCCCCOP(=O)([O-])OCC[N+](C)(C)C)c1 [TC387] | 7.5 µM | 7.5 µM | 80 | 12 ± 3 µM | 27.2 ± 2.9 µM | 0.53 ± 0.09 (A) M | 34 | 27 ± 9 µM | 956 ± 277 µM | 26.2% | < 50% | 60.4% | 20.5% | 75.3% | Whole blood - % haemolysis (whole blood): 22.5 ± 3.7% |
| COC(=O)c1c(CCCCCCCCOP(=O)([O-])OCC[N+](C)(C)C)cccc1OC [TC388] | 7.5 µM | 7.5 µM | – | 10 ± 2 µM | 38.9 ± 3.8 µM | 0.50 ± 0.13 (A) M | 42 | 39 ± 11 µM | 1630 ± 404 µM | 8.5% | – | 25.3% | – | 14.5% | hemolysis at 24 h, 12.5 mM ([8]; 12.5 mM): 24.2 ± 6.4% |
| COc1cc(CCCCCCCCOP(=O)([O-])OCC[N+](C)(C)C)cc(OC)c1 [TC437] | 15 µM | 7.5 µM | 43 | 16 ± 3 µM | – | 0.56 ± 0.11 (A) M | 29 | 24 ± 7 µM | 692 ± 212 µM | 29.8% | < 50% | 65.4% | 40.6 ± 7.4% | 92.5% | EC50 [3]: 22.8 ± 3.7 µM |
